According to patent publication US12171842B2, “Method for hyperthermially treating a cancer” (Imam Abdulrahman Bin Faisal University, priority 2021, dated 2024):

Key:
[1] = test system: non-cancerous human foreskin fibroblasts (HFF); test: Cell viability (MTT) and EC50, HFF; type: cell-based; details: for effect on cell viability (in words): HFF, 48 h, four doses (nanocomposites 0.025-0.5 mg/ml)
Method: (§1) Human mammary adenocarcinoma (MCF7) and the non-cancerous human foreskin fibroblasts (HFF) cell lines were used to assess the cytotoxic effect of the prepared compounds. Cells were cultured in a DMEM culture medium containing 10% HI—FBS, 1% Penicillin Streptomycin, and 1% MEM NEAA. Cells were maintained in a humidified setting at 37° C. with 5% CO2. For cell viability assay, cells were seeded in a 96-well plate with a density of 20,000 cells/well. While for microscopic images, 50,000 cells/well were plated on an eight-well chamber slide. On the following day, cells were switched to the starve culture medium that contains 0.5% HI—FBS. Cells were maintained for 24 h in the starve medium before the treatment was added.
(§2) MCF7 and HFF cells were treated with the subsequent conditions for 48 h: CuFe2O4/Mesosilicalite, Curcumin, Cisplatin, CuFe2O4/Mesosilicalite/Curcumin, CuFe2O4/Mesosilicalite/Curcumin/Cisplatin, or CuFe2O4/MCM-41/Curcumin/Cisplatin. Treatment concentrations of CuFe2O4/Mesosilicalite, CuFe2O4/Mesosilicalite/Curcumin, CuFe2O4/Mesosilicalite/Curcumin/Cisplatin, and CuFe2O4/MCM-41/Curcumin/Cisplatin nanocomposites were: 0.025, 0.05, 0.1, and 0.5 mg/ml. Based on the drug loading experiments, simple calculations were followed to reflect the actual quantity of curcumin and cisplatin that adsorbed on CuFe2O4/Mesosilicalite nanoparticles. According to the loading experiments, 1 mg of CuFe2O4 nanoparticles contains 0.25 mg and 0.045 mg of curcumin and cisplatin, respectively. Thus, if CuFe2O4/Mesosilicalite concentration was 0.5 mg/ml, there is 0.125 mg/ml of adsorbed curcumin and 0.0225 mg/ml of functionalized cisplatin. Therefore, the treatment concentrations of curcumin were: 0.00625, 0.0125, 0.025 and 0.125 mg/ml and the treatment concentrations of cisplatin were: 0.001125, 0.00225, 0.0045 and 0.0225 mg/ml.
(§3) To assess the compounds' cytotoxicity, 3-(4,5-dimethylthiazol-2-yl)-2,5-diphenyltetrazolium bromide (MTT), a cell viability assay, was used. It measures the cell viability by assessing the mitochondria's ability to convert yellow MTT solution into purple formazan insoluble crystals. […] The difference in color intensity was measured by SYNERGY-neo2 BioTek ELISA reader at 570 nm as a measuring wavelength. The technical triplicate readings of each condition were averaged, and the absorbance from MTT negative control was deducted from these readings. An initial reading was measured before MTT addition at the same wavelength. Thus, to remove undesirable interference in the measurement, the initial reading was subtracted from the final reading. Then, the treatment groups were analyzed by comparing them to the control (untreated cells). Cell viability was calculated using the following equation (1): […]

[2] = test system: Human mammary adenocarcinoma (MCF7) cells; test: Cell viability (MTT) and EC50, MCF7; type: cell-based; details: for effect on cell viability (in words): MCF7, 48 h, four doses (nanocomposites 0.025-0.5 mg/ml)
Method: as §1, §2, §3

[3] = Cell viability (MTT) and EC50, HFF; type: cell-based, human; details: human, HFF cells (non-cancerous human foreskin fibroblasts); HFF, third dose (0.1 mg/ml nanocomposite; 0.025 mg/ml curcumin), 48 h, versus untreated control
Method: as §1, §2, §3

SMILES: N.N.[Cl][Pt][Cl] [Cisplatin, cisplatin]
- EC50 Value ([1]; HFF cell line, 48 h MTT, best-fit line): 3.763 µg/mL
- effect on cell viability (in words) [1]: reduction in cell viability
- effect on cell viability (in words) [2]: reduction in cell viability
- EC50 Value ([2]; MCF-7 cell line, 48 h MTT, best-fit line): 4.425 µg/mL

SMILES: COc1cc(/C=C/C(=O)CC(=O)/C=C/c2ccc(O)c(OC)c2)ccc1O [Curcumin]
- viability at 48 h, 0.025 mg/ml [3]: 84.1%
- effect on cell viability (in words) [1]: minimally reduced the cell viability
- viability at 25 µg/mL ([2]; Homo sapiens, MCF7, third dose (0.1 mg/ml nanocomposite; 0.025 mg/ml curcumin), 48 h, versus untreated control): 80.7%
- effect on cell viability (in words) [2]: reduced cell viability only at the highest concentration
